Measurements taken from patent US20140303105A1, “Primycin and components thereof for use in the treatment or prevention of infections caused by specific pathogens” (PANNONPHARMA GYÓGYSZERGYÁRTÓ ZRT., priority 2011, published 2014).
Where two headings read alike, the source gives them in different places.

Legend:
B. subtilis ATCC 6633 = conditions: by Bryskier; cited from earlier work
[1] = system: erythromycin-resistant staphylococci; conditions: 71 strains; cited from earlier work
[2] = system: Streptococcus viridans sp.; assay: Standard microdilution susceptibility test, clinical isolates; type: cell-based; conditions: 20 clinical isolates
[3] = system: Staphylococcus epidermidis; conditions: by Bryskier; cited from earlier work
[4] = system: Enterococcus sp., decreased vancomycin susceptibility; assay: Standard microdilution susceptibility test, clinical isolates; type: cell-based; conditions: 5 clinical isolates
[5] = system: laboratory strain Listeria monocytogenes; conditions: Uri 1986; cited from earlier work
Gram-negative species = conditions: crystalline primycin and amorphous predecessor; Uri and Actor 1979; cited from earlier work
S. pyogenes = conditions: by Bryskier; cited from earlier work
[6] = system: Staphylococcus saprophyticus 8454; conditions: cited from earlier work
E. casseliflavus = assay: Microdilution MIC, Enterococcus isolates with van resistance genes; type: cell-based
Description: (§1) Identification and characterization of resistance patterns of these bacteria were performed by standard methods.
(§2) When forming the test groups we attached great importance to the increasing incidence of drug-resistant microbes causing therapeutic problems. Most important of them are methicillin-resistant Staphylococcus aureus (MRSA), methicillin-resistant coagulase-negative Staphylococcus spp. (MRCoNS), penicillin-resistant Streptococcus pneumoniae (pneumococcus), vancomycin-resistant Enterococcus spp. (VRE). Pneumococcus isolates represented various serotypes, VRE isolates belonged to various species. Moreover, vancomycin-resistance of VRE isolates was based on different genetic backgrounds. Antibiotic-resistant strains were also represented among international reference strains, for example methicillin-resistant Staphylococcus aureus ATCC 43300 (MRSA), Staphylococcus aureus with decreased vancomycin susceptibility ATCC 700698 and 700699 (vancomycin intermediate Staphylococcus aureus—VISA), mupirocin-resistant Staphylococcus aureus ATCC BAA1708 and vancomycin-resistant Enterococcus faecalis ATCC 51299 (VRE).
(§3) Susceptibility tests were performed according to the standard microdilution method (NCCLS (CLSI) M7-A7).
(§4) The lowest concentration at which no bacterial growth was observed after the incubation period is the Minimal Inhibitory Concentration (MIC). The MIC value is inversely proportional to the antimicrobial efficacy. MIC values of antimicrobial agents can differ by species or even by bacterial strains within species.

E. faecalis = assay: as above; type: cell-based
Description: as §1, §2, §3, §4

E. faecium = assay: as above; type: cell-based; conditions: resistance gene van B
Description: as §1, §2, §3, §4

[7] = system: Streptococcus pneumoniae, penicillin susceptible; assay: Standard microdilution susceptibility test, clinical isolates; type: cell-based; conditions: for MIC: single isolate
Streptococcus mitis = conditions: by Bryskier; cited from earlier work
S. aureus ATCC 25923 [8] = conditions: by Bryskier; cited from earlier work
Propionibacterium acnes [9] = conditions: cited from earlier work
Staphylococcus capitis = conditions: cited from earlier work
Micrococcus = conditions: by Bryskier; cited from earlier work
[10] = system: Corynebacterium spp., Enterobacteriaceae species, Pseudomonas aeruginosa, yeasts and dermatophytes; conditions: Bryskier 2005; cited from earlier work
Escherichia coli B 1218 = conditions: cited from earlier work
[11] = system: Staphylococcus epidermidis 7586; conditions: cited from earlier work
[12] = system: Enterobacter cloacae B 520; conditions: cited from earlier work
[13] = system: erythromycin-sensitive Staphylococcus spp. strains; conditions: collection of 279 strains; cited from earlier work
S. aureus ATCC 25923 [14] = conditions: Uri and Actor 1979; cited from earlier work
[15] = system: Enterococcus faecalis ATCC 29212; assay: Microdilution MIC, ATCC reference strains; type: cell-based
Description: as §1, §2, §3, §4

[16] = system: Coagulase-negative Staphylococus sp., methicillin susceptible; assay: Standard microdilution susceptibility test, clinical isolates; type: cell-based; conditions: 10 clinical isolates
[17] = system: Enterococcus sp., vancomycin susceptible; assay: as above; type: cell-based; conditions: 20 clinical isolates
[18] = system: S. aureus and coagulase-negative staphylococci; conditions: Bryskier 2005; cited from earlier work
[19] = system: Bacillus spp. and Micrococcus spp.; conditions: Bryskier 2005; cited from earlier work
[20] = system: Coagulase-negative Staphylococus sp., methicillin resistant; assay: Standard microdilution susceptibility test, clinical isolates; type: cell-based; conditions: 10 clinical isolates
Propionibacterium acnes [21] = conditions: by Bryskier; cited from earlier work
Escherichia coli = conditions: by Bryskier; cited from earlier work

Primycin
MIC (B. subtilis ATCC 6633): 0.39 µg/mL | share of strains presenting primycin resistance [1]: 13% | MIC 50% [2]: 1 µg/mL | MIC 90% [2]: 1 µg/mL | MIC Range [2]: 0.5 to 1 µg/mL | Ratio of Sensitive/Total [2]: 20/20 | MIC [3]: 0.78 µg/mL | MIC Range [4]: 0.25 to 0.5 µg/mL | Ratio of Sensitive/Total [4]: 5/5 | MIC [5]: 0.25 µg/mL | efficacy against Gram-negative species (Gram-negative species): ineffective | MIC (S. pyogenes): 1.56 µg/mL | MIC [6]: 0.39 µg/mL | MIC (E. casseliflavus; resistance gene van C1): 0.5 µg/mL | MIC (E. casseliflavus; resistance gene van C2): 0.5 µg/mL | MIC (E. faecalis; resistance gene van A): 0.5 µg/mL | MIC (E. faecalis; resistance gene van C1): 0.5 µg/mL | MIC (E. faecium): 0.25 µg/mL | MIC 50% ([7]; 10 clinical isolates): 0.5 µg/mL | MIC 90% ([7]; 10 clinical isolates): 0.5 µg/mL | MIC Range ([7]; 10 clinical isolates): 0.25 to 1 µg/mL | Ratio of Sensitive/Total ([7]; 10 clinical isolates): 10/10 | MIC ([7]; serotype 3): 0.5 µg/mL | MIC ([7]; serotype 4): 0.5 µg/mL | MIC ([7]; serotype 7F): 0.5 µg/mL | MIC ([7]; serotype 8): 0.5 µg/mL | MIC ([7]; serotype 9(V)): 0.5 µg/mL | MIC ([7]; serotype 11(A)): 0.5 µg/mL | MIC ([7]; serotype 19F): 0.5 µg/mL | MIC ([7]; serotype 23(F)): 0.25 µg/mL | MIC (Streptococcus mitis): 50 µg/mL | MIC (S. aureus ATCC 25923 [8]): 25 µg/mL | MIC (Propionibacterium acnes [9]): <0.1 µg/mL | MIC (Staphylococcus capitis): 0.78 µg/mL | MIC (Micrococcus): 0.78 µg/mL | efficacy [10]: ineffective | MIC (Escherichia coli B 1218): 50.0 µg/mL | MIC [11]: 0.78 µg/mL | MIC [12]: 50.0 µg/mL | share of strains primycin-resistant (MIC≧5 mg/L) [13]: 1% | MIC (not inhibited at the highest concentration tested) (S. aureus ATCC 25923 [14]): > 2 µg/mL | Primycin MIC [15]: 0.5 µg/mL | MIC 50% [16]: 0.03 µg/mL | MIC 90% [16]: 0.06 µg/mL | MIC Range [16]: 0.03 to 0.06 µg/mL | Ratio of Sensitive/Total [16]: 10/10 | MIC 50% [17]: 0.5 µg/mL | MIC 90% [17]: 0.5 µg/mL | MIC Range [17]: 0.5 to 1 µg/mL | Ratio of Sensitive/Total [17]: 20/20 | efficacy [18]: effective | efficacy [19]: effective | MIC 50% [20]: 0.06 µg/mL | MIC 90% [20]: 0.06 µg/mL | MIC Range [20]: 0.03 to 0.06 µg/mL | Ratio of Sensitive/Total [20]: 10/10 | MIC (Propionibacterium acnes [21]): <0.1 µg/mL | MIC (Escherichia coli): 50 µg/mL
